Source: patent US11000033B2, “Ketone or oxime compound, and herbicide” (NISSAN CHEMICAL CORPORATION, priority 2014, dated 2021)

Tests used:
Assay type in all cases: in vivo
Chenopodium album = assay: Test Example 5: herbicidal effect by foliage application, plastic box (symbol O); details: 320 g/ha, 3 weeks after application
Summary of the method: (§1)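 Sowing in sterilized diluvial soil, 14 days' greenhouse growth at 25° C. to 30° C., then uniform small-sprayer foliar application of aqueous emulsion dilution; plants scored three weeks afterwards.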

beet = assay: Test Example 4: effect on crop by soil treatment (symbol f); details: application herbicide amount 320 g/ha
Summary of the method: (§2)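 Steps: fill box with sterilized diluvial soil; sow seed spot-like; cover with ~1.5 cm soil; grow in greenhouse (25° C. to 30° C.).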

Lolium multiflorum Lam. [1] = assay: Test Example 5: herbicidal effect by foliage application, plastic box (symbol K); details: 320 g/ha, 3 weeks after application
Summary of the method: as §1

Avena fatua [2] = assay: Test Example 4: herbicidal effect by soil treatment (symbol I); details: application herbicide amount 320 g/ha
Summary of the method: (§3)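 Seeds were sown in sterilized diluvial soil, covered with about 1.5 cm of soil, and the soil surface was sprayed with a water-diluted emulsion of the compound at a predetermined rate. Plants grew in a greenhouse at 25° C. to 30° C.; effects were scored visually 3 weeks after application.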

[3] = test system: Echinochloa crus-galli var. crus-galli; assay: Test Example 4: herbicidal effect by soil treatment (symbol H); details: application herbicide amount 320 g/ha
Summary of the method: as §3

Alopecurus myosuroides = assay: Test Example 4: herbicidal effect by soil treatment (symbol J); details: application herbicide amount 320 g/ha
Summary of the method: as §3

Apera spica-venti [4] = assay: Test Example 4: herbicidal effect by soil treatment (symbol L); details: application herbicide amount 320 g/ha
Summary of the method: as §3

Monochoria vaginalis = assay: Test Example 2: herbicidal activity, application during weed generation in submerged conditions (symbol C); details: Table 23; application herbicide amount 320 g/ha; grade 0-5 by criteria of Test Example 1
Summary of the method: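 Steps: fill pots with alluvial soil; add water to 4 cm depth; co-sow the three weeds; grow at 25° C. to 30° C. under glass; at 1–2 leaves, dose the floodwater with diluted emulsion; rate damage visually after 3 weeks.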

[5] = test system: directly sowed rice plant; assay: Test Example 3: effect on crop by foliage application, Wagner pot (symbol b); details: application herbicide amount 320 g/ha
Summary of the method: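 Steps: fill a 1/10000-are Wagner pot with alluvial soil; add water and mix to submerge at 0.1–0.5 cm depth; sow rice plus Echinochloa crus-galli var. crus-galli, Leptochloa chinensis and Cyperus difformis; grow in a 25–30 °C greenhouse.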

Amaranthus retroflexus = assay: Test Example 5: herbicidal effect by foliage application, plastic box (symbol N); details: 320 g/ha, 3 weeks after application
Summary of the method: as §1

rapeseed [6] = assay: Test Example 4: effect on crop by soil treatment (symbol g); details: application herbicide amount 320 g/ha
Summary of the method: as §2

Digitaria ciliaris [7] = assay: Test Example 4: herbicidal effect by soil treatment (symbol F); details: application herbicide amount 320 g/ha
Summary of the method: as §3

Lolium multiflorum Lam. [8] = assay: Test Example 4: herbicidal effect by soil treatment (symbol K); details: application herbicide amount 320 g/ha
Summary of the method: as §3

wheat = assay: Test Example 5: effect on crop by foliage application, plastic box (symbol e); details: 320 g/ha, 3 weeks after application
Summary of the method: (§4)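 Box culture: sterile diluvial soil, seeds spot-sown, ~1.5 cm cover, raised under glass at 25–30° C.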

Avena fatua [9] = assay: Test Example 5: herbicidal effect by foliage application, plastic box (symbol I); details: 320 g/ha, 3 weeks after application
Summary of the method: as §1

rapeseed [10] = assay: Test Example 5: effect on crop by foliage application, plastic box (symbol g); details: 320 g/ha, 3 weeks after application
Summary of the method: as §4

Stellaria media = assay: Test Example 5: herbicidal effect by foliage application, plastic box (symbol P); details: 320 g/ha, 3 weeks after application
Summary of the method: as §1

Digitaria ciliaris [11] = assay: Test Example 5: herbicidal effect by foliage application, plastic box (symbol F); details: 320 g/ha, 3 weeks after application
Summary of the method: as §1

Galium spurium = assay: Test Example 5: herbicidal effect by foliage application, plastic box (symbol Q); details: 320 g/ha, 3 weeks after application
Summary of the method: as §1

Apera spica-venti [12] = assay: Test Example 5: herbicidal effect by foliage application, plastic box (symbol L); details: 320 g/ha, 3 weeks after application
Summary of the method: as §1

rice = assay: Test Example 4: effect on crop by soil treatment (symbol b); details: application herbicide amount 320 g/ha
Summary of the method: as §2

Abutilon theophrasti = assay: Test Example 5: herbicidal effect by foliage application, plastic box (symbol M); details: 320 g/ha, 3 weeks after application
Summary of the method: as §1

Veronica persica = assay: Test Example 5: herbicidal effect by foliage application, plastic box (symbol R); details: 320 g/ha, 3 weeks after application
Summary of the method: as §1

Row | Structure (SMILES) | O: Chenopodium album, herbicidal effect grade (Chenopodium album) | Effect on crop grade, f: beet (beet) | K: Lolium multiflorum Lam., herbicidal effect grade (Lolium multiflorum Lam. [1]) | Herbicidal effect grade, I: Avena fatua (Avena fatua [2]) | Herbicidal effect grade, H: Echinochloa crus-galli var. crus-galli [3] | Herbicidal effect grade, J: Alopecurus myosuroides (Alopecurus myosuroides) | Herbicidal effect grade, L: Apera spica-venti (Apera spica-venti [4]) | Herbicidal effect grade, C: Monochoria vaginalis (Monochoria vaginalis) | N: Amaranthus retroflexus, herbicidal effect grade (Amaranthus retroflexus) | Effect on crop grade, g: rapeseed (rapeseed [6]) | Herbicidal effect grade, F: Digitaria ciliaris (Digitaria ciliaris [7]) | Herbicidal effect grade, K: Lolium multiflorum Lam. (Lolium multiflorum Lam. [8]) | e: wheat, effect on crop grade (wheat) | I: Avena fatua, herbicidal effect grade (Avena fatua [9]) | g: rapeseed, effect on crop grade (rapeseed [10]) | P: Stellaria media, herbicidal effect grade (Stellaria media) | F: Digitaria ciliaris, herbicidal effect grade (Digitaria ciliaris [11]) | Q: Galium spurium, herbicidal effect grade (Galium spurium) | L: Apera spica-venti, herbicidal effect grade (Apera spica-venti [12]) | Effect on crop grade, b: directly sowed rice plant (rice) | also measured
1 | CC(=O)C1CC(O)=C(c2c(C)cc(C)cc2C)C1=O (stereo not drawn) [8-001] | 0 (Herbicidal ratio of 5% or lower (almost no effect)) | 0 (Herbicidal ratio of 5% or lower (almost no effect)) | 1 (Herbicidal ratio of 5% or higher and lower than 20%) | 0 (Herbicidal ratio of 5% or lower (almost no effect)) | 0 (Herbicidal ratio of 5% or lower (almost no effect)) | 0 (Herbicidal ratio of 5% or lower (almost no effect)) | 0 (Herbicidal ratio of 5% or lower (almost no effect)) | 0 (Herbicidal ratio of 5% or lower (almost no effect)) | 0 (Herbicidal ratio of 5% or lower (almost no effect)) | 0 (Herbicidal ratio of 5% or lower (almost no effect)) | 0 (Herbicidal ratio of 5% or lower (almost no effect)) | 0 (Herbicidal ratio of 5% or lower (almost no effect)) | 0 (Herbicidal ratio of 5% or lower (almost no effect)) | 0 (Herbicidal ratio of 5% or lower (almost no effect)) | 0 (Herbicidal ratio of 5% or lower (almost no effect)) | 0 (Herbicidal ratio of 5% or lower (almost no effect)) | 1 (Herbicidal ratio of 5% or higher and lower than 20%) | 0 (Herbicidal ratio of 5% or lower (almost no effect)) | 0 (Herbicidal ratio of 5% or lower (almost no effect)) | 0 (Herbicidal ratio of 5% or lower (almost no effect)) | b (directly sowed rice plant) effect on crop grade ([5]; Table 24): 0 (Herbicidal ratio of 5% or lower (almost no effect)); M: Abutilon theophrasti, herbicidal effect grade (Abutilon theophrasti): 0 (Herbicidal ratio of 5% or lower (almost no effect))
2 | CC(CC1CC(O)=C(c2c(C)cc(C)cc2C)C1=O)=NOCc1ccccn1 (stereo not drawn) [1-022] | 3 (Herbicidal ratio of 40% or higher and lower than 70%) | – | 5 (Herbicidal ratio of 90% or more (almost completely withered)) | – | – | – | – | 3 (Herbicidal ratio of 40% or higher and lower than 70%) | 1 (Herbicidal ratio of 5% or higher and lower than 20%) | – | – | – | 5 (Herbicidal ratio of 90% or more (almost completely withered)) | 5 (Herbicidal ratio of 90% or more (almost completely withered)) | 4 (Herbicidal ratio of 70% or higher and lower than 90%) | 3 (Herbicidal ratio of 40% or higher and lower than 70%) | 5 (Herbicidal ratio of 90% or more (almost completely withered)) | 4 (Herbicidal ratio of 70% or higher and lower than 90%) | 5 (Herbicidal ratio of 90% or more (almost completely withered)) | – | f (beet) effect on crop grade (beet): 3 (Herbicidal ratio of 40% or higher and lower than 70%); I (Avena fatua) herbicidal effect grade (Avena fatua [2]): 4 (Herbicidal ratio of 70% or higher and lower than 90%); H (Echinochloa crus-galli var. crus-galli) herbicidal effect grade [3]: 5 (Herbicidal ratio of 90% or more (almost completely withered)); J (Alopecurus myosuroides) herbicidal effect grade (Alopecurus myosuroides): 5 (Herbicidal ratio of 90% or more (almost completely withered)); L (Apera spica-venti) herbicidal effect grade (Apera spica-venti [4]): 5 (Herbicidal ratio of 90% or more (almost completely withered)); effect on crop b (directly sowed rice plant), grade 0-5 [5]: 5 (Herbicidal ratio of 90% or more (almost completely withered)); F (Digitaria ciliaris) herbicidal effect grade (Digitaria ciliaris [7]): 5 (Herbicidal ratio of 90% or more (almost completely withered)); K (Lolium multiflorum Lam.) herbicidal effect grade (Lolium multiflorum Lam. [8]): 5 (Herbicidal ratio of 90% or more (almost completely withered)); R: Veronica persica, herbicidal effect grade (Veronica persica): 3 (Herbicidal ratio of 40% or higher and lower than 70%); b (directly sowed rice plant) effect on crop grade (rice): 5 (Herbicidal ratio of 90% or more (almost completely withered)); M: Abutilon theophrasti, herbicidal effect grade (Abutilon theophrasti): 1 (Herbicidal ratio of 5% or higher and lower than 20%)
3 | CC(=O)CC1CC(O)=C(c2c(C)cc(-c3ccccc3)cc2C)C1=O (stereo not drawn) [7-004] | – | 0 (Herbicidal ratio of 5% or lower (almost no effect)) | – | 0 (Herbicidal ratio of 5% or lower (almost no effect)) | 5 (Herbicidal ratio of 90% or more (almost completely withered)) | 5 (Herbicidal ratio of 90% or more (almost completely withered)) | 5 (Herbicidal ratio of 90% or more (almost completely withered)) | 0 (Herbicidal ratio of 5% or lower (almost no effect)) | – | 3 (Herbicidal ratio of 40% or higher and lower than 70%) | 5 (Herbicidal ratio of 90% or more (almost completely withered)) | 5 (Herbicidal ratio of 90% or more (almost completely withered)) | – | – | – | – | – | – | – | 5 (Herbicidal ratio of 90% or more (almost completely withered)) | O: Chenopodium album, herbicidal effect (criteria of Test Example 1) (Chenopodium album): 2 (Herbicidal ratio of 20% or higher and lower than 40%); K: Lolium multiflorum Lam., herbicidal effect (criteria of Test Example 1) (Lolium multiflorum Lam. [1]): 5 (Herbicidal ratio of 90% or more (almost completely withered)); effect on crop b (directly sowed rice plant), grade 0-5 [5]: 5 (Herbicidal ratio of 90% or more (almost completely withered)); N: Amaranthus retroflexus, herbicidal effect (criteria of Test Example 1) (Amaranthus retroflexus): 0 (Herbicidal ratio of 5% or lower (almost no effect)); e: wheat, effect on crop (criteria of Test Example 1) (wheat): 0 (Herbicidal ratio of 5% or lower (almost no effect)); I: Avena fatua, herbicidal effect (criteria of Test Example 1) (Avena fatua [9]): 2 (Herbicidal ratio of 20% or higher and lower than 40%); g: rapeseed, effect on crop (criteria of Test Example 1) (rapeseed [10]): 3 (Herbicidal ratio of 40% or higher and lower than 70%); P: Stellaria media, herbicidal effect (criteria of Test Example 1) (Stellaria media): 0 (Herbicidal ratio of 5% or lower (almost no effect)); F: Digitaria ciliaris, herbicidal effect (criteria of Test Example 1) (Digitaria ciliaris [11]): 5 (Herbicidal ratio of 90% or more (almost completely withered)); Q: Galium spurium, herbicidal effect (criteria of Test Example 1) (Galium spurium): 0 (Herbicidal ratio of 5% or lower (almost no effect)); L: Apera spica-venti, herbicidal effect (criteria of Test Example 1) (Apera spica-venti [12]): 5 (Herbicidal ratio of 90% or more (almost completely withered)); M: Abutilon theophrasti, herbicidal effect (criteria of Test Example 1) (Abutilon theophrasti): 0 (Herbicidal ratio of 5% or lower (almost no effect))
